Among the data in patent EP0716856B1, “Therapeutic uses of 2',5'-oligoadenylate derivatives” (Temple University of the Commonwealth System of Higher …, priority 1988, dated 1989) are inhibition values, retold here.

The term inhibition denotes how much of the control response was suppressed.

In the test the target is T1, HIV-1 reverse transcriptase (Human immunodeficiency virus type 1 group M subtype B, UniProt P04585).
T1 construct: used as a source of HIV-1 reverse transcriptase; endogenous in cells; host or cells: Virions pelleted from conditioned supernatant of H9 cells infected with HTLV-IIIB, lysed with Triton X-100
Kind of test: Inhibition of HIV-1 reverse transcriptase activity in vitro (viral lysate, poly(A).(dT)15 template-primer, [3H]dTTP incorporation). In kind it is biochemical. The conditions noted are these: Concentration 400 micromolar; 37°C, 1 h; read-out: Percent Inhibition. On the procedure:
Reverse Transcriptase Assays. Virus was concentrated from cell-free ([…]) conditioned H9/HTLV-IIIB culture supernatants by centrifugation at 18,000 r.p.m. for 4 h at 20°C in a Beckman JA-20 rotor. A viral pellet obtained from 50 ml of conditioned culture fluid was dissolved in 0.5 mL of a solution containing 17 mM Tris-HCl (pH 7.8), 3mM dithiothreitol (DTT), 55 mM KC1, 0.32% w/v Triton X-100, and 33% glycerol. This viral lysate was stored at -20°C and was used as a source of HIV-1 reverse transcriptase. Reverse transcriptase reactions were performed in 100 µL reaction volumes containing 40 mM Tris-HC1 (pH 7.8), 4 mM DTT, 50 mM KCl, 10 mM MgCl2, 0.0325% w/v Triton X-100, 3 micromolar [^33H]dTTP (80 Ci/mmol,NEN) and poly (A).(dT)15 (2.5 microgram/mL) template-primer after the addition of 10 microliter enzyme. Inhibitors were added at various concentrations after adjusting water volumes so that reaction volumes remained constant. Reactions were incubated at 37°C for 1 h in a humidified environment and terminated by adding 2 mL of 10% cold trichloroacetic acid. Precipitate was collected on 0.45 µm cellulose-acetate Millipore filters which were then dissolved in 10 mL of 3a70B aqueous scintillant and the counts per minute quantitated using a Beckman LS 6800 liquid scintillation spectrometer.

Consider `Nc1ncnc2c1ncn2[C@@H]1O[C@H](CO)[C@@H](O)[C@H]1O` [(adenosine) A, adenosine], for which the inhibition at 400 µM stood at 0%.
The figure for `Nc1ncnc2c1ncn2[C@@H]1O[C@H](CO)C[C@H]1O` [cordycepin (C), 3'-deoxyadenosine] is 0%.
